From the supplement of paper PMC12463676, “Small-molecule dissolution of stress granules by redox modulation benefits ALS models” (Nature Chemical Biology, 2025)

How the values were obtained:
lipoamide = compound: NC(=O)CCCCC1CCSS1 [lipoamide]; experiment: thermal stability z-score vs DMSO; higher = more thermally stabilized by treatment; settings: HeLa, lipoamide concentration 100 µM
Description: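 Cellular thermal proteome profiling in HeLa cells. Cells were treated with 100 µM lipoamide for 1 h, with or without 1 mM arsenate for a further 1 h, then heated to ten temperatures (37-66.3 °C), and soluble protein was quantified by TMT mass spectrometry relative to 0.1% DMSO controls. The thermal stability score (sum of log2 fold changes minus the abundance score) was transformed to a z-score; mean of n = 3 experiments.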

potassium arsenate = compound: O=[As]([O-])(O)O.[K+] [potassium arsenate]; experiment: as above; settings: HeLa; arsenate concentration 1 mM
Description: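 Cellular thermal proteome profiling in HeLa cells treated with 1 mM arsenate for 1 h (DMSO pretreatment), heated to ten temperatures (37-66.3 °C). Soluble protein was quantified by TMT mass spectrometry relative to DMSO controls; the thermal stability score was transformed to a z-score; mean of n = 3 experiments.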

[1] = arsenate co-treatment: 1 mM arsenate 1 h
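Note: each temperature applied for 3 min, abundance score taken as mean log2 fold change at the two lowest temperatures, z-score obtained by mean subtraction and division by SD.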

Sequence of UniProt P25789 (P25789 whole entry): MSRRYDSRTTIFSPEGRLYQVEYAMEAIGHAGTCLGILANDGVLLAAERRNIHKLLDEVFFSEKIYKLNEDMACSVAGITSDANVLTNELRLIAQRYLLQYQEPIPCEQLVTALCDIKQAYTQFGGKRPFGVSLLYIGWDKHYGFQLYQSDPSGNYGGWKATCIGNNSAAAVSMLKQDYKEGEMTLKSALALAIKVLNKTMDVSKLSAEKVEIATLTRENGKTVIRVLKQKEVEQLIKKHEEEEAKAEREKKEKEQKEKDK
Sequence of UniProt P28074 (P28074 whole entry): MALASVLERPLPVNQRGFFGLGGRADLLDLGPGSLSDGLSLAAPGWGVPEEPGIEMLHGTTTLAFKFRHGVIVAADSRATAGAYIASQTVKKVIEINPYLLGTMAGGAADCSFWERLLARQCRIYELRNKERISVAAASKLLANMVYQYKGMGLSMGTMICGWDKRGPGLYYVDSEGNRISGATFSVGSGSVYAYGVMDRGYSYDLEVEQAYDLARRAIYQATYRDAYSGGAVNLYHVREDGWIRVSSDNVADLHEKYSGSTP
Sequence of UniProt P48634 (P48634 whole entry): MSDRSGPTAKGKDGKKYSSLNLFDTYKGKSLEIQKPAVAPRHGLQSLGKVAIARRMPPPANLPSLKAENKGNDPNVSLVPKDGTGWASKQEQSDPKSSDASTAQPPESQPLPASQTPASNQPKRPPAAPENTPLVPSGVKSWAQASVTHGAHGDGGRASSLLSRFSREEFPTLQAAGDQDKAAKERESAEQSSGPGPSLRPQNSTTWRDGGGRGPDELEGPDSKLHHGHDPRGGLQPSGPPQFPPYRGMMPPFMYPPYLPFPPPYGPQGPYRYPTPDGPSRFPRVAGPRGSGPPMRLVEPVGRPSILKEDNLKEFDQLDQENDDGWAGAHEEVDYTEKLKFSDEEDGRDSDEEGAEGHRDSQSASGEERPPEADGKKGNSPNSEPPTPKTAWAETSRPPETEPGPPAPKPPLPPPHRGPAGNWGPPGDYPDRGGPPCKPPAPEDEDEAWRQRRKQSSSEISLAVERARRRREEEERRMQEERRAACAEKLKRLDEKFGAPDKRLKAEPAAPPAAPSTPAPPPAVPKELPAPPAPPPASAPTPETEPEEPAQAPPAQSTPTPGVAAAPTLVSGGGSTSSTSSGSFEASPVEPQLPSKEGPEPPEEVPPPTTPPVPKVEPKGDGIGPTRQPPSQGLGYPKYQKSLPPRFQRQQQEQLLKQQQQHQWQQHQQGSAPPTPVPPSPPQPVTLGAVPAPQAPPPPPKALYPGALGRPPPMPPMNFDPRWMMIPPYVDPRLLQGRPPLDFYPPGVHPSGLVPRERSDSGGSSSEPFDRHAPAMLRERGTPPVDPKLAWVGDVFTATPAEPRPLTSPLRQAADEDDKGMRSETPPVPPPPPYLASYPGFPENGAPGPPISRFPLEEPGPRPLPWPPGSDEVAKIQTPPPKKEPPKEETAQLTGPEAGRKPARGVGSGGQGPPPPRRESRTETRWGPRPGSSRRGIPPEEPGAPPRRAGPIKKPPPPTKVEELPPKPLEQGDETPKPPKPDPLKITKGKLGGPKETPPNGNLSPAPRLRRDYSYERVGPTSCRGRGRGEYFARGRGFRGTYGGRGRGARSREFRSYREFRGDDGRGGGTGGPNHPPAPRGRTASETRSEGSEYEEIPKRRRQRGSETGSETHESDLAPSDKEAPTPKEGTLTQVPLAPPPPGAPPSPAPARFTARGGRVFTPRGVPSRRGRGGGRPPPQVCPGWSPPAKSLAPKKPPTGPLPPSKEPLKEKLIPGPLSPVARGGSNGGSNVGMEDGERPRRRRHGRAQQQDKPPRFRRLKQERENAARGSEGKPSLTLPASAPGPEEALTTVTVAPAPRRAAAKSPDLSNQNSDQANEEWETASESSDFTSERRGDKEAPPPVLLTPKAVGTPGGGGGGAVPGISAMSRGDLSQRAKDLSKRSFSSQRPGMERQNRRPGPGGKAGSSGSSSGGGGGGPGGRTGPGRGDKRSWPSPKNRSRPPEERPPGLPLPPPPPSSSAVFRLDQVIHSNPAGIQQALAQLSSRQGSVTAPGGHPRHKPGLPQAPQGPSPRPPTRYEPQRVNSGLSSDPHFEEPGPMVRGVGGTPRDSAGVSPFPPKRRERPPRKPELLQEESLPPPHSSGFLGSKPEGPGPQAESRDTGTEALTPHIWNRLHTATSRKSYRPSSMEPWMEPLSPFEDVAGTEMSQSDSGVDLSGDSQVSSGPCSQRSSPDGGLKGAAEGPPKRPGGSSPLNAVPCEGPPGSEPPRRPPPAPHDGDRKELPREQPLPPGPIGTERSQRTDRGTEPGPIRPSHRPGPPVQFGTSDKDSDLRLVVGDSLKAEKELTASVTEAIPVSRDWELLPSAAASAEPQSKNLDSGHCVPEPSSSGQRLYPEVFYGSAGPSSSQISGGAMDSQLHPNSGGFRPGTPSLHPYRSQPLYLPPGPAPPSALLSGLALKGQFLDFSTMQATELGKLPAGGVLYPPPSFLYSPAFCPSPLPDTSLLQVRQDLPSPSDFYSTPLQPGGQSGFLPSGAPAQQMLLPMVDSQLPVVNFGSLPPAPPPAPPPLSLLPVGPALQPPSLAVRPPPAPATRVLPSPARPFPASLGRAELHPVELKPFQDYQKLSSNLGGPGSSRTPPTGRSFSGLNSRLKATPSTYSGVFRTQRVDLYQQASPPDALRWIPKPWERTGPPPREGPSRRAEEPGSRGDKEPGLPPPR
Sequence of UniProt P28072 (P28072 whole entry): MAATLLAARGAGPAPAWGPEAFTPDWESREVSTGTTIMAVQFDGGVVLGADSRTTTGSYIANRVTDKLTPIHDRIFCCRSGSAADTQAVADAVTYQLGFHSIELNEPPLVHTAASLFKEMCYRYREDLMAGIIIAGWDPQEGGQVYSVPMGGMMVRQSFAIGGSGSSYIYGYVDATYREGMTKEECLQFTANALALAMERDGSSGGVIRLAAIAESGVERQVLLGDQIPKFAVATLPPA
Sequence of UniProt P0CW18 (P0CW18 whole entry): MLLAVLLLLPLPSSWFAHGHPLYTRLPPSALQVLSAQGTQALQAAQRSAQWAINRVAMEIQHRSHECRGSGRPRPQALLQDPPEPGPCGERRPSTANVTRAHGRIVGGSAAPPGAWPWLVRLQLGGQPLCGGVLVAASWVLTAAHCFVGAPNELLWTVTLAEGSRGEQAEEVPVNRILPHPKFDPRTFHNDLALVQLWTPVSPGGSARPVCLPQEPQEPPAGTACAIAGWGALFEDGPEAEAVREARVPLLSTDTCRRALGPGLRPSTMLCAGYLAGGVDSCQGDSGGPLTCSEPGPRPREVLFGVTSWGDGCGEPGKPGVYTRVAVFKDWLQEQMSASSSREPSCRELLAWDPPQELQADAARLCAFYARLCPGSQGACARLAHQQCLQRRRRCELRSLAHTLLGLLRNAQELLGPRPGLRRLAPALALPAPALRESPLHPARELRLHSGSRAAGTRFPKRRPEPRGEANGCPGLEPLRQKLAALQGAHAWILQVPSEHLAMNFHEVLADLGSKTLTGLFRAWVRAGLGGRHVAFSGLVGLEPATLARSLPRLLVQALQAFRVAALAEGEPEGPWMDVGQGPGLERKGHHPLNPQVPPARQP
Sequence of UniProt P60900 (P60900 whole entry): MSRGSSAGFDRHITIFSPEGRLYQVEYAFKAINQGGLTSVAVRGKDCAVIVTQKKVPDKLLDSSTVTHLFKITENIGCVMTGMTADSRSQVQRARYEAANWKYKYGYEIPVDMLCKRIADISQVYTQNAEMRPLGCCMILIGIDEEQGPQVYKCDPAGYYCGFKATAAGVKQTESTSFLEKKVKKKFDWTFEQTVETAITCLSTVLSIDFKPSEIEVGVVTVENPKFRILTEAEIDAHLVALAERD
Sequence of UniProt O75475 (O75475 whole entry): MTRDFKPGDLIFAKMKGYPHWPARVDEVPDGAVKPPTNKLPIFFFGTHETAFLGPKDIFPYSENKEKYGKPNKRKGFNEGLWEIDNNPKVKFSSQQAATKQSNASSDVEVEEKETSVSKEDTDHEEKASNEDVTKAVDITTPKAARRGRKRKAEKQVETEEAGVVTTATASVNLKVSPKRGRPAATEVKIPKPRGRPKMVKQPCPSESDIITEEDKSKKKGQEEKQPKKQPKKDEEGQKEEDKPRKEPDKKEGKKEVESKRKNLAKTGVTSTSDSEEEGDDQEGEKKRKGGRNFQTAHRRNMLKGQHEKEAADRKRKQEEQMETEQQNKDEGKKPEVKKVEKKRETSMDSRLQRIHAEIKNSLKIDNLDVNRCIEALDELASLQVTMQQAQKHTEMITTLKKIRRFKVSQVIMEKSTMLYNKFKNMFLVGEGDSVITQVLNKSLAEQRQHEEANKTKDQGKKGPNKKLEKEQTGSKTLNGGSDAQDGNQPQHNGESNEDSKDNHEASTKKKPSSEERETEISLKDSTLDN
Sequence of UniProt Q86TP1 (Q86TP1 whole entry): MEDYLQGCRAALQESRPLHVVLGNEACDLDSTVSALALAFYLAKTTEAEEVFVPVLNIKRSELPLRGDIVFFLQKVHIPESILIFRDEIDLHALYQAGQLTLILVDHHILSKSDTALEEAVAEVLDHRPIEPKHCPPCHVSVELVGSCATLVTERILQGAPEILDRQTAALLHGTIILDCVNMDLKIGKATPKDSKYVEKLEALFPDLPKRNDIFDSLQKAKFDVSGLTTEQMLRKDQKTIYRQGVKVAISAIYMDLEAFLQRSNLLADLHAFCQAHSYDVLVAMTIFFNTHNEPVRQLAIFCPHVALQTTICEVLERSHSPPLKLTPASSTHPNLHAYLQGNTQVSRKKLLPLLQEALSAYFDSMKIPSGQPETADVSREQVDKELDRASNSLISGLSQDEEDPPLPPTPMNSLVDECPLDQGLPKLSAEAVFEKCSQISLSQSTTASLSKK
Sequence of UniProt P25786 (P25786 whole entry): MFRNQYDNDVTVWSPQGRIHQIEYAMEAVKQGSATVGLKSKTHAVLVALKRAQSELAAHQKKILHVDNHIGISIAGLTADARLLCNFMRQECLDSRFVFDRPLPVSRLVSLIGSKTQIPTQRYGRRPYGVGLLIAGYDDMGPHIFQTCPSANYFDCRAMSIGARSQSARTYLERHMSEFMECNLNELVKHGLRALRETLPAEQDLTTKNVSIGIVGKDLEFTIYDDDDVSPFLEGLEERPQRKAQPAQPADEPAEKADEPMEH

Row | Target | thermal stability z-score (lipoamide; [1]) | thermal stability z-score (lipoamide; arsenate co-treatment: none) | thermal stability z-score (potassium arsenate)
1 | PRRC2A (UniProt P48634) | 0.431 | 0.205 | -0.13
2 | PRRC2B (UniProt Q5JSZ5) | -0.32 | -0.119 | -0.412
3 | PRRC2C (UniProt Q9Y520) | 0.242 | 0.174 | 0.0846
4 | PRSS21 (UniProt Q9Y6M0) | -3 | -2.45 | 1.03
5 | PRSS56 (UniProt P0CW18) | -3.63 | -2.95 | 0.756
6 | PRTFDC1 (UniProt Q9NRG1) | 0.628 | 0.169 | -0.386
7 | PRUNE (UniProt Q86TP1) | -0.709 | -0.433 | 0.291
8 | PSAP (UniProt P07602) | 0.0503 | -0.136 | -0.336
9 | PSAT1 (UniProt Q9Y617) | 0.659 | 0.402 | -0.653
10 | PSEN1 (UniProt P49768) | 1.23 | -2 | -2.52
11 | PSEN2 (UniProt P49810) | -0.815 | -1.79 | -1.19
12 | PSIP1 (UniProt O75475) | 0.499 | 0.761 | -0.306
13 | PSMA1 (UniProt P25786) | 0.629 | 0.284 | 0.373
14 | PSMA2 (UniProt P25787) | 0.38 | 0.455 | -0.132
15 | PSMA3 (UniProt P25788) | 0.613 | 0.719 | 0.398
16 | PSMA4 (UniProt P25789) | 1.29 | 0.788 | 0.411
17 | PSMA5 (UniProt P28066) | 0.148 | 0.204 | -0.238
18 | PSMA6 (UniProt P60900) | 0.746 | 0.795 | 0.345
19 | PSMA7 (UniProt O14818) | 0.939 | 0.898 | 0.38
20 | PSMB1 (UniProt P20618) | 1 | 0.743 | 0.497
21 | PSMB2 (UniProt P49721) | 1.49 | 1.31 | 1.08
22 | PSMB3 (UniProt P49720) | 1.04 | 0.994 | 0.157
23 | PSMB4 (UniProt P28070) | 0.411 | 0.72 | 0.545
24 | PSMB5 (UniProt P28074) | 0.395 | 0.222 | 0.113
25 | PSMB6 (UniProt P28072) | 0.174 | 0.262 | -0.414
26 | PSMB7 (UniProt Q99436) | 1.04 | 0.99 | 0.481
27 | PSMC1 (UniProt P62191) | -0.269 | -0.208 | -0.724
